# In the supplement of paper PMC10307832:
# Key:
# Assay in all cases: relative viability (nuclei count vs DMSO), 5 days (fraction); higher = more cells survive
# [1] = system: NCI-H2085
# Procedure, shortened: (§1)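 One day after seeding in 1536-well plates, lung cancer cell lines were dosed by pin tool. Dosing was either single-drug or a fixed anchor-drug dose plus five library-drug doses (not always all listed) in √10 steps. After 5 days, nuclei were stained in one fix-and-stain step and counted on 4× images, and relative viability is the nuclei count of treated wells over that of vehicle wells, given as the median of duplicate plates.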
# [2] = system: BEN
# Procedure, shortened: as §1
# [3] = system: PC-14
# Procedure, shortened: as §1
# [4] = system: NCI-H1355
# Procedure, shortened: as §1
# [5] = system: NCI-H2009
# Procedure, shortened: as §1
# [6] = system: LCLC-97TM1
# Procedure, shortened: as §1
# [7] = system: NCI-H322M
# Procedure, shortened: as §1
# [8] = system: NCI-H460
# Procedure, shortened: as §1
# [9] = system: HCC-78
# Procedure, shortened: as §1
# [10] = system: 201T
# Procedure, shortened: as §1
# [11] = system: NCI-H650
# Procedure, shortened: as §1
# [12] = system: NCI-H2126
# Procedure, shortened: as §1
# [13] = system: LU99A
# Procedure, shortened: as §1
# [14] = system: NCI-H647
# Procedure, shortened: as §1
# [15] = system: NCI-H1395
# Procedure, shortened: as §1
# [16] = system: NCI-H2405
# Procedure, shortened: as §1
# [17] = system: NCI-H23
# Procedure, shortened: as §1
# [18] = system: NCI-H2342
# Procedure, shortened: as §1
# [19] = system: HCC-15
# Procedure, shortened: as §1
# [20] = system: EPLC-272H
# Procedure, shortened: as §1
# [21] = system: NCI-H661
# Procedure, shortened: as §1
# [22] = system: NCI-H838
# Procedure, shortened: as §1
structure (smiles),measurement,setting,value
Cc1csc(=NC2CCCCC2)n1/N=C/c1ccc(O)c(O)c1O [MIM1] + Nc1ncn([C@H]2C[C@H](O)[C@@H](CO)O2)c(=O)n1 [Decitabine] (partner 2 µM),relative viability,[1]; first compound 0.2 µM,0.539
same,relative viability,[1]; first compound 0.6325 µM,0.522
same,relative viability,[1]; first compound 2 µM,0.516
same,relative viability,[1]; first compound 6.325 µM,0.491
same,relative viability,[1]; first compound 20 µM,0.563
same,relative viability,[2]; first compound 0.2 µM,0.811
same,relative viability,[2]; first compound 0.6325 µM,0.547
same,relative viability,[2]; first compound 2 µM,0.797
same,relative viability,[2]; first compound 6.325 µM,0.739
same,relative viability,[2]; first compound 20 µM,0.317
same,relative viability,[3]; first compound 0.2 µM,0.17
same,relative viability,[3]; first compound 0.6325 µM,0.197
same,relative viability,[3]; first compound 2 µM,0.201
same,relative viability,[3]; first compound 6.325 µM,0.137
same,relative viability,[3]; first compound 20 µM,0.0966
same,relative viability,[4]; first compound 0.2 µM,0.361
same,relative viability,[4]; first compound 0.6325 µM,0.343
same,relative viability,[4]; first compound 2 µM,0.386
same,relative viability,[4]; first compound 6.325 µM,0.339
same,relative viability,[4]; first compound 20 µM,0.332
same,relative viability,[5]; first compound 0.2 µM,0.401
same,relative viability,[5]; first compound 0.6325 µM,0.39
same,relative viability,[5]; first compound 2 µM,0.371
same,relative viability,[5]; first compound 6.325 µM,0.36
same,relative viability,[5]; first compound 20 µM,0.291
same,relative viability,[6]; first compound 0.2 µM,0.245
same,relative viability,[6]; first compound 0.6325 µM,0.238
same,relative viability,[6]; first compound 2 µM,0.234
same,relative viability,[6]; first compound 6.325 µM,0.214
same,relative viability,[6]; first compound 20 µM,0.0699
same,relative viability,[7]; first compound 0.2 µM,0.622
same,relative viability,[7]; first compound 0.6325 µM,0.74
same,relative viability,[7]; first compound 2 µM,0.736
same,relative viability,[7]; first compound 6.325 µM,0.642
same,relative viability,[7]; first compound 20 µM,0.653
same,relative viability,[8]; first compound 0.2 µM,0.438
same,relative viability,[8]; first compound 0.6325 µM,0.479
same,relative viability,[8]; first compound 2 µM,0.43
same,relative viability,[8]; first compound 6.325 µM,0.182
same,relative viability,[8]; first compound 20 µM,0.0456
same,relative viability,[9]; first compound 0.2 µM,0.784
same,relative viability,[9]; first compound 2 µM,0.728
same,relative viability,[9]; first compound 6.325 µM,0.502
same,relative viability,[9]; first compound 20 µM,0.426
same,relative viability,[10]; first compound 0.2 µM,0.849
same,relative viability,[10]; first compound 0.6325 µM,0.887
same,relative viability,[10]; first compound 2 µM,0.812
same,relative viability,[10]; first compound 6.325 µM,0.831
same,relative viability,[10]; first compound 20 µM,0.533
same,relative viability,[11]; first compound 0.2 µM,0.294
same,relative viability,[11]; first compound 0.6325 µM,0.342
same,relative viability,[11]; first compound 2 µM,0.345
same,relative viability,[11]; first compound 6.325 µM,0.323
same,relative viability,[11]; first compound 20 µM,0.206
same,relative viability,[12]; first compound 0.2 µM,0.659
same,relative viability,[12]; first compound 0.6325 µM,0.628
same,relative viability,[12]; first compound 2 µM,0.545
same,relative viability,[12]; first compound 6.325 µM,0.584
same,relative viability,[12]; first compound 20 µM,0.488
same,relative viability,[13]; first compound 0.2 µM,0.87
same,relative viability,[13]; first compound 0.6325 µM,0.845
same,relative viability,[13]; first compound 2 µM,0.927
same,relative viability,[13]; first compound 6.325 µM,0.889
same,relative viability,[13]; first compound 20 µM,0.393
same,relative viability,[14]; first compound 0.2 µM,0.414
same,relative viability,[14]; first compound 0.6325 µM,0.364
same,relative viability,[14]; first compound 2 µM,0.397
same,relative viability,[14]; first compound 6.325 µM,0.33
same,relative viability,[14]; first compound 20 µM,0.126
same,relative viability,[15]; first compound 0.2 µM,0.708
same,relative viability,[15]; first compound 0.6325 µM,0.793
same,relative viability,[15]; first compound 2 µM,0.646
same,relative viability,[15]; first compound 6.325 µM,0.688
same,relative viability,[15]; first compound 20 µM,0.427
same,relative viability,[16]; first compound 0.2 µM,0.744
same,relative viability,[16]; first compound 0.6325 µM,0.738
same,relative viability,[16]; first compound 2 µM,0.771
same,relative viability,[16]; first compound 6.325 µM,0.561
same,relative viability,[16]; first compound 20 µM,0.421
same,relative viability,[17]; first compound 0.2 µM,0.336
same,relative viability,[17]; first compound 0.6325 µM,0.322
same,relative viability,[17]; first compound 2 µM,0.288
same,relative viability,[17]; first compound 6.325 µM,0.281
same,relative viability,[17]; first compound 20 µM,0.169
same,relative viability,[18]; first compound 0.2 µM,0.724
same,relative viability,[18]; first compound 0.6325 µM,0.721
same,relative viability,[18]; first compound 2 µM,0.708
same,relative viability,[18]; first compound 6.325 µM,0.664
same,relative viability,[18]; first compound 20 µM,0.724
same,relative viability,[19]; first compound 0.2 µM,0.634
same,relative viability,[19]; first compound 0.6325 µM,0.607
same,relative viability,[19]; first compound 2 µM,0.66
same,relative viability,[19]; first compound 6.325 µM,0.341
same,relative viability,[19]; first compound 20 µM,0.163
same,relative viability,[20]; first compound 0.2 µM,0.36
same,relative viability,[20]; first compound 0.6325 µM,0.382
same,relative viability,[20]; first compound 2 µM,0.375
same,relative viability,[20]; first compound 6.325 µM,0.29
same,relative viability,[20]; first compound 20 µM,0.154
same,relative viability,[21]; first compound 0.2 µM,0.496
same,relative viability,[21]; first compound 0.6325 µM,0.571
same,relative viability,[21]; first compound 2 µM,0.577
same,relative viability,[21]; first compound 6.325 µM,0.416
same,relative viability,[21]; first compound 20 µM,0.284
same,relative viability,[22]; first compound 0.2 µM,0.468
same,relative viability,[22]; first compound 0.6325 µM,0.462
same,relative viability,[22]; first compound 2 µM,0.513
same,relative viability,[22]; first compound 6.325 µM,0.394
same,relative viability,[22]; first compound 20 µM,0.221
